Test results reported in US9302996B2, “Continuous arycyclic compound” (MITSUBISHI TANABE PHARMA CORPORATION, priority 2010, dated 2016).
Where two headings read alike, the source gives them in different places. Marks after values point to notes of the source that are not given here.

What was measured:
Assay type in all cases: in vivo
[1] = test system: ICR mice; assay: Triglyceride (TG) in blood plasma increase-inhibiting action due to lipid administration; conditions: Mus musculus; male ICR mice, 5 mg/kg oral, lipid (Intralipos 20%) after 30 minutes, plasma TG 2 hours after lipid; read-out: Inhibiting rate of TG-increase in blood plasma (5 mg/kg)
Experimental: 6 to 9 weeks-old male ICR mice were fasted overnight, and Test compound suspended in 0.2% carboxymethyl cellulose solution was orally administered to the mice. A lipid (Intralipos 20%, OTSUKA PHARMACEUTICAL CO., LTD., 10 mL/kg) was orally administered after 30 minutes. Blood was collected from tail vein immediately before the lipid administration, and after 2 hours from the same to obtain blood plasma. Measurement of TG in blood plasma was carried out by using a triglyceride E Test Wako (Wako Pure Chemical Industries, Ltd.), and an increased value of TG in blood plasma by administration of the lipid was calculated. An increased value of TG in blood plasma in a solvent control group was used as a control, and an inhibiting rate in increase of TG in blood plasma in the Test compound administered group was calculated.

[2] = test system: C57BL/6J mice; assay: Antifeeding activity (high fat diet intake up to 4 hours); conditions: Mus musculus, male C57BL/6J mice, 5 mg/kg oral, food ingested up to 4 hours, read-out: Antifeeding rate (5 mg/kg)
Experimental: 7 to 10 weeks-old male C57BL/6J mice were fasted overnight, and the test compound suspended in 0.2% carboxymethylcellulose solution was orally administered. Immediately after the administration, high fat diet (Oriental Yeast Co., Ltd, 60 cal % fat) was provided and freely fed. An amount of food ingested up to 4 hours was measured, and a lowering rate (an antifeeding rate) of the amount of food ingested in the Test compound administered group was calculated as compared to that of the solvent control group as a control.

[3] = test system: KK-Ay mice; assay: Weight gain-inhibiting action, hypoglycemic effect, insulin in blood plasma lowering action in KK-Ay mice; conditions: male KK-Ay mice, high fat diet, 2 weeks; for inhibition in vivo at 30 mg/kg: Mus musculus, 336 h, 30 mg/kg/day oral
Experimental: To 8 weeks-old male KK-Ay mice were provided high fat diet (Oriental Yeast Co., Ltd, 60 cal % fat), and Test compound suspended in 0.2% carboxymethylcellulose solution was orally administered once a day. Oral administration was continued for 2 weeks, and a weight gain-inhibiting rate of the Test compound was calculated by using a weight gain amount of the solvent control group during the test period as 100%. After final administration, the mice were fasted overnight, and blood was collected from tail vein. Measurement of a blood-sugar level was carried out by using glucose Cα Test Wako (Wako Pure Chemical Industries, Ltd.), and measurement of insulin in blood plasma was carried out by using a mouse insulin measurement kit (Morinaga Institute of Biological Science, Inc.).

[4] = read-out: Hypoglycemic action (30 mg/kg/day)
[5] = read-out: Insulin in blood plasma-lowering action (30 mg/kg/day)
[6] = administration dose of 1 mg/kg/day oral

Structure (SMILES) | inhibition in vivo at 5 mg/kg [1] | inhibition in vivo at 5 mg/kg [2] | also measured
Cc1cc(OCC(C)(C)C(=O)O)ncc1-c1ccc(-c2ncc(C(C)(C)C(F)(F)F)[nH]2)c(F)c1 [Example 115] | 50% | 62% | 
CC(C)(COc1cnc(-c2ccc(-c3ncc(C4(C(F)(F)F)CCC4)[nH]3)cc2)cn1)C(=O)O [Example 48] | 23% |  | 
CC(C)(COc1ccc(-c2cnc(-c3ncc(C(F)(F)F)[nH]3)c(F)c2)cn1)C(=O)O [Example 141] | 82% | 55% | 
CC(C)(COc1ccc(-c2ccc(-c3ncc(C(C)(C)C)[nH]3)cn2)cc1)C(=O)O [Example 57] | 43% |  | 
Cc1cc(-c2ccc(-c3ncc(C(F)(F)F)[nH]3)cn2)ccc1OCC(C)(C)C(=O)O [Example 8-2), 2,2-dimethyl-3-[2-methyl-4-[5-[5-(trifluoromethyl)-1H-imidazol-2-yl]-2-pyridyl]phenoxy]propanoic acid] | 46% | 57% | 
Cc1cc(OCC2(C(=O)O)CCC2)ncc1-c1cnc(-c2ncc(C(F)(F)F)[nH]2)c(Cl)c1 [Example 99-6), 1-[({5′-chloro-4-methyl-6′-[5-(trifluoromethyl)-1H-imidazol-2-yl]-3,3′-bipyridin-6-yl}oxy)methyl]cyclobutanecarboxylic acid] | 95% | 85% | 
CC(C)(COc1cnc(-c2ccc(-c3ncc(C4(C(F)(F)F)CC4)[nH]3)cc2)cn1)C(=O)O [Example 49] | 48% | 58% | 
Cc1cc(OCC(C)(C)C(=O)O)ncc1-c1ccc(-c2ncc(C3(C(F)(F)F)CCC3)[nH]2)c(F)c1 [Example 52] | 26% |  | 
CCC(CC)(COc1cc(C)c(-c2ccc(-c3ncc(C(F)(F)F)[nH]3)nc2)cn1)C(=O)O [Example 127] | 44% |  | 
CC(C)(COc1ccc(-c2ccc(-c3ncc(CC(F)F)[nH]3)cn2)cc1)C(=O)O [Example 12] | 51% | 40% | 
CC(C)(COc1ccc(-c2ccc(-c3ncc(C(F)(F)F)[nH]3)cn2)cc1)C(=O)O [Example 1-3), 2,2-dimethyl-3-(4-{5-[5-(trifluoromethyl)-1H-imidazol-2-yl]pyridin-2-yl}phenoxy)propanoic acid] |  |  | inhibition in vivo at 30 mg/kg [3, 4]: 43%; inhibition in vivo at 30 mg/kg [3, 5]: 58%
CC(C)(CCOc1ccc(-c2ccc(-c3ncc(C(F)(F)F)[nH]3)cn2)cc1)C(=O)O [Example 18-2), 2,2-dimethyl-4-[4-[5-[5-(trifluoromethyl)-1H-imidazol-2-yl]-2-pyridin]phenoxy]butanoic acid] | 69% | 83% | 
Cc1cc(OCC(C)(C)C(=O)O)ncc1-c1ccc(-c2ncc(CC3CC3)[nH]2)c(Cl)c1 [Example 121] | 53% | 57% | 
O=C(O)C1(COc2ccc(-c3ccc(-c4ncc(C(F)(F)F)[nH]4)cn3)cc2)CC1 [Example 60-3), 1-[[4-[5-[5-(trifluoromethyl)-1H-imidazol-2-yl]-2-pyridyl]phenoxy]methyl]cyclopropanecarboxylic acid] | 48% | 59% | 
CC(C)(COc1ccc(-c2ccc(-c3ncc(C(F)(F)F)[nH]3)cn2)cc1)CC(=O)O [Example 65] | 75% | 79% | 
CC(C)(COc1cnc(-c2ccc(-c3ncc(C(C)(C)C(F)(F)F)[nH]3)cc2)cn1)C(=O)O [Example 50] | 21% |  | 
CC(C)(COc1ccc(-c2ccc(-c3ncc(C(C)(C)C(F)(F)F)[nH]3)cn2)cc1)C(=O)O [Example 2-3), sodium 2,2-dimethyl-3-(4-{5-[5-(2,2,2-trifluoro-1,1-dimethylethyl)-1H-imidazol-2-yl]pyridin-2-yl}phenoxy)propanoate] |  |  | inhibition in vivo at 30 mg/kg [3, 4]: 64%; inhibition in vivo at 30 mg/kg [3, 5]: 62%; inhibition in vivo at 30 mg/kg ([3]; read-out: Weight gain-inhibiting action (30 mg/kg/day)): 53%
Cc1cc(-c2ccc(OCC(C)(C)C(=O)O)cc2)ncc1-c1ncc(C2(C(F)(F)F)CC2)[nH]1 [Example 35-3), 2,2-dimethyl-3-[4-(4-methyl-5-{5-[1-(trifluoromethyl)cyclopropyl]-1H-imidazol-2-yl}pyridin-2-yl)phenoxy]-propanoic acid] | 54% | 56% | 
CCC(CC)(COc1cc(C)c(-c2ccc(-c3ncc(C(F)(F)F)[nH]3)c(F)c2)cn1)C(=O)O [Example 134] | 84% | 74% | 
Cc1cc(OCC(C)(C)C(=O)O)ncc1-c1ccc(-c2ncc(C(F)(F)C(F)(F)F)[nH]2)c(F)c1 [Example 124] | 98% | 75% | 
CC(C)(COc1ncc(-c2ccc(-c3ncc(C(F)(F)F)[nH]3)cc2)cc1F)C(=O)O [Example 90] | 83% | 75% | 

Structure (SMILES) | inhibition in vivo at 5 mg/kg [1] | inhibition in vivo at 5 mg/kg [2] | also measured
CC(C)(COc1ncc(-c2ccc(-c3ncc(C(F)(F)F)[nH]3)c(Cl)c2)cc1F)C(=O)O [Example 82] | 47% | 42% | 
Cc1cc(OCC(C)(C)C(=O)O)ncc1-c1ccc(-c2ncc(CC(C)C)[nH]2)c(C)c1 [Example 103] | 8% |  | 
O=C(O)CCCOc1ccc(-c2ccc(-c3ncc(C(F)(F)F)[nH]3)cn2)cc1 [Example 11] | 31% |  | 
CC(C)(COc1ccc(-c2ccc(-c3ncc(CCC(F)(F)F)[nH]3)cn2)cc1)C(=O)O [Example 24] | 33% |  | 
Cc1cc(OCC2(C(=O)O)CC2)ncc1-c1ccc(-c2ncc(C(F)(F)F)[nH]2)c(Cl)c1 [Example 100-5), 1-{[(5-{3-chloro-4-[5-(trifluoromethyl)-1H-imidazol-2-yl]phenyl}-4-methylpyridin-2-yl)oxy]methyl}cyclopropanecarboxylic acid] | 60% |  | 
O=C(O)CCCCOc1ccc(-c2ccc(-c3ncc(C(F)(F)F)[nH]3)cn2)cc1 [Example 15] | 32% |  | 
CC(C)(COc1ncc(-c2ccc(-c3ncc(C4(C(F)(F)F)CC4)[nH]3)cc2)cc1F)C(=O)O [Example 111] | 41% |  | 
Cc1cc(OCC(C)(C)C(=O)O)ncc1-c1ccc(-c2ncc(C3(C(F)(F)F)CCC3)[nH]2)nc1 [Example 46] | 13% |  | 
Cc1cc(-c2cnc(OCC(C)(C)C(=O)O)nc2)ccc1-c1ncc(C(F)(F)F)[nH]1 [Example 145] | 43% |  | 
CC(C)(COc1ccc(-c2ccc(-c3nc(C(F)(F)F)c[nH]3)cn2)cc1)C(=O)O [Example 94-3), 2,2-dimethyl-3-[4-[5-[4-(trifluoromethyl)-1H-imidazol-2-yl]-2-pyridyl]phenoxy]propanoic acid] |  |  | Hypoglycemic action [3, 6]: 42%*; Insulin in blood plasma-lowering action [3, 6]: 29%*
CC(C)(COc1ccc(-c2ccc(-c3ncc(C(F)(F)F)[nH]3)cn2)c(F)c1F)C(=O)O [Example 75] | 5% |  | 
CC(C)(COc1ccc(-c2ccc(-c3ncc(C(F)(F)F)[nH]3)c(F)c2F)cn1)C(=O)O [Example 80] | 41% |  | 
Cc1cc(OCC2(C(=O)O)CC2)ncc1-c1cnc(-c2ncc(C(F)(F)F)[nH]2)c(Cl)c1 [Example 139] | 52% |  | 
CC(C)(COc1ccc(-c2ccc(-c3ncc(C(C)(C)C(F)(F)F)[nH]3)c(F)c2)cn1)C(=O)O [Example 53] | 36% |  | 
COc1cc(-c2cnc(OCC(C)(C)C(=O)O)cc2C)ccc1-c1ncc(C(F)(F)F)[nH]1 [Example 129] | 16% |  | 
CC(C)(COc1ccc(-c2ccc(-c3ncc(C4CCC4)[nH]3)cn2)cc1)C(=O)O [Example 55-2), 3-[4-[5-(5-cyclobutyl-1H-imidazol-2-yl)-2-pyridyl]phenoxy]-2,2-dimethylpropanoic acid] |  | 39% | 
CC(C)(COc1ccc(-c2ccc(-c3ncc(C4CCC(F)(F)CC4)[nH]3)cn2)cc1)C(=O)O [Example 34] | 19% |  | 
Cc1cc(OCC(C)(C)C(=O)O)ncc1-c1ccc(-c2ncc(C(F)(F)F)[nH]2)c(C2CC2)c1 [Example 131] | 57% |  | 
O=C(O)C1(COc2ccc(-c3ccc(-c4ncc(C(F)(F)F)[nH]4)cn3)cc2)CCOCC1 [Example 21] | 20% |  | 
CC(C)(COc1ncc(-c2ccc(-c3ncc(C4(C(F)(F)F)CCC4)[nH]3)cc2)cc1F)C(=O)O [Example 144] | 7% |  | 
